Consider seven compounds from patent publication US10624881B2, “Methods for inducing apoptosis in cancer cells” (Health Research, Inc., priority 2015, dated 2020).

By IC50 is commonly meant the midpoint of a concentration-inhibition curve.

Read-outs that look alike come from different tables or passages of the source.

One data set concerns the target T1, Mdm2-MdmX E3 ligase (Homo sapiens, UniProt O15151).
T1 construct: FLAG; made in house; host or cells: insect cells (baculovirus)
T1 sequence (O15151 1-490): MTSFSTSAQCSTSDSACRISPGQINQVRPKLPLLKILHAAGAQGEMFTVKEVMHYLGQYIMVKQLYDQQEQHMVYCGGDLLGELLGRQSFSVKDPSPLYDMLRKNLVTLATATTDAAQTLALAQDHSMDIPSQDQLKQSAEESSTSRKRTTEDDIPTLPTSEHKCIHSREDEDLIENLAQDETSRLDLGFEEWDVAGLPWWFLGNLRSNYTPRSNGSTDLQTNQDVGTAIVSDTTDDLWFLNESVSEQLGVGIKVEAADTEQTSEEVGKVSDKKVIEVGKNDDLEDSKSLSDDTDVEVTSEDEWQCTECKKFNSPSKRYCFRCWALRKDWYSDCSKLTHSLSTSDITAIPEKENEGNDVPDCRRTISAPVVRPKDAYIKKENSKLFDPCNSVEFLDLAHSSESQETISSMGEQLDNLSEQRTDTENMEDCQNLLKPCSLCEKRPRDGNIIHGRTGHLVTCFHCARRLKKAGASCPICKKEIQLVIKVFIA
In words: In vitro MdmX-stimulated Mdm2 autoubiquitination (Western blot). In kind it is biochemical. The settings on record: compound 10 μM. From the text: (§1) Materials and Methods. Plasmids, Protein Purification, and Chemical Reagents. FLAG-MdmX and HA-Mdm2 (human) constructs for insect cell expression and protein purification were described previously. HA-ubiquitin construct was generated by inserting HA-tag to the N-terminus of ubiquitin in pET28a vector. The mammalian expression plasmid pcDNA3.1-HdmX was a gift from Dr. Gokul Das (Roswell Park Cancer Institute).
In vitro validation assays by Mdm2 autoubiquitination and p53 ubiquitination by Mdm2-MdmX and NEDD4-1 autoubiquitination. In order to test the compound specificity, we used two sets of ubiquitination reaction. One is MdmX stimulated Mdm2 autoubiquitination, the other is NEDD4-1 autoubiquitination. […] The former reaction includes 100 nM HA-tagged Mdm2 and 200 nM MdmX, and latter reaction includes 200 nM HA-tagged NEDD4-1. After adding compound to final concentration of 10 μM, the reaction was started by incubation at 30° C. in a water bath for one hour. Then the reaction was stopped by adding SDS sample buffer, followed by SDS-PAGE and Western blot analysis for HA or NEDD4-1. In vitro assays for p53 ubiquitination by Mdm2-MdmX were performed as described previously. Briefly, reactions were carried out as described above for Mdm2 autoubiquitination except for addition of 100 nM p53. Compounds or DMSO of final concentrations of 10 μM were added in the reaction before starting the reaction at 30° C. for 1 h followed by WB of p53 with DO-1 antibody.
(In western blotting, separated proteins are transferred to a membrane and probed.)

The target of another data set is T2, Mdm2 RING domain (Homo sapiens, UniProt Q00987, DEL223-299).
T2 construct: made in house; host or cells: insect cells (recombinant baculovirus)
T2 sequence (Q00987 with tags, fused parts or gaps isoform Q00987-2 DEL28-104): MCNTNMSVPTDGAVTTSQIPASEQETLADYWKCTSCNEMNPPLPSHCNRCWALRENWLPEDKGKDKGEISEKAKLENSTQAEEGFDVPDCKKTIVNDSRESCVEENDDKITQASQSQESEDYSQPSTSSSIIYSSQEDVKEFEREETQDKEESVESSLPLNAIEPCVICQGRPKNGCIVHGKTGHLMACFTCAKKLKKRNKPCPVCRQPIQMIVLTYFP
In words: In vitro autoubiquitination of Mdm2 RING domain (RING-RING homo-dimers). The settings on record: compound 10 μM, Western blot. The class given is biochemical. The method, then: In vitro ubiquitination assays were performed with Mdm2 (100 nM) and MdmX (200 nM) in the presence of nothing (C), DMSO (10 μM) or indicated compounds (10 μM), followed by WB of Mdm2 with anti-HA antibody. […] In vitro ubiquitination assays were performed with Mdm2-RING domain (100 nM) in the presence of nothing (C), DMSO (10 μM) or indicated compounds (10 μM), followed by WB of Mdm2 with anti-HA. […] FLAG-MdmX and HA-Mdm2-RING domain (HA-Mdm2R) were incubated in vitro in the presence of nothing (positive control), or DMSO (10 μM) or indicated compounds (10 μM), followed by pulldown with anti-FLAG-beads (M2) and WB of MdmX and Mdm2-RING domain with anti-FLAG and anti-HA antibodies respectively. The negative control (Neg) contains all components as in positive control sample except for missing of FLAG-MdmX.
To directly evaluate the ability of these compounds in inhibiting Mdm2-MdmX interaction, we performed in vitro pulldown experiments using recombinant FLAG-MdmX and HA-Mdm2RING proteins. After incubation of the two proteins in test tubes in the presence or absence of test compounds for 30 min at RT, FLAG-MdmX was pulled down with anti-FLAG beads followed by detection of MdmX-bound HA-Mdm2RING domain by Western blotting for HA-tag.
as §1

Another data set relates to NALM6. In words: Cell proliferation assay, NALM6 cells. In kind it is cell-based. Conditions: 72 h, read-out: IC50 of Compounds, NALM6.
A further data set relates to RL4RH cells. In words: RRCL proliferation assay, drug-resistant lymphoma RL4RH cells. The settings on record: for IC50: 3-day treatment. In kind it is cell-based.
The next data set has as its system Raji4RH cells. The data set can be described thus: RRCL proliferation assay, drug-resistant lymphoma Raji4RH cells. In kind it is cell-based. The settings on record: for IC50: 3-day treatment.
For another data set, the system named is mouse bone marrow cells. Conditions: for IC50: read-out: IC50, CFU-GM, mouse bone marrow cells, 7-day continuous treatment. As to the method:
For the bone marrow toxicity assay, the following method was used. 400 μL of murine marrow mononuclear cells (2.0×10^5/mL) in IMDM containing 20% FBS, 10 units/mL recombinant murine GM-CSF, 10% of a 10× drug solution or control solution (DMSO), and 0.3% agarose were pipetted into microwells containing a 0.4-mL underlayer of IMDM and 0.3% agarose. The cultures were allowed to gel at 4° C. for 15 min and incubated at 37° C. in a fully humidified atmosphere of 5% CO2 in air for 7 days. CFU-GM colonies (aggregates of ≥40 cells) were counted with an inverted microscope using phase contrast. Percent survivals were calculated as 100× (the number of colonies in the drug-treated groups divided by the number of colonies in the vehicle control-treated group). IC50 values were determined.

The next data set concerns NALM6 cells. In words: Flow cytometry of sub-G1 population in NALM6 cells (PI staining). The class given is cell-based. The text has this: Sub-G1 fractions of each treatment were shown.
Proliferation and apoptosis assays.
(In flow cytometry, cells or beads pass a laser one at a time.)

A further data set has as its system NALM6-shp53 cells. The data set can be described thus: Apoptosis markers in NALM6-shp53 cells (Western blot). In kind it is cell-based. Conditions: NALM6-shp53 versus NALM6, 24 h. The text has this: Actin was the loading control.
For the next data set, the system named is NALM6-shp53. The data set can be described thus: Cell proliferation assay, NALM6-shp53 cells (p53 shRNA knockdown). In kind it is cell-based. As to the method:
Proliferation and apoptosis assays. Growth inhibition assays and apoptosis assays were carried out as described previously.

Data set [1] concerns p53 pathway in HCT8 cells. Conditions: Western blot, time- and concentration-dependent.
Data set [2] relates to p53 pathway in NALM6 cells.

`Oc1c(C(Nc2ccccn2)c2ccc(Cl)c(Cl)c2)ccc2cccnc12` (stereo not shown) [MMRi61]: the “inhibition of Mdm2 autoubiquitination stimulated by MdmX” value (from here on “inhibition … by MdmX”) on Mdm2-MdmX E3 ligase is “inhibit”. Moreover, the “inhibition of autoubiquitination of Mdm2 RING domain (RING-RING homo-dimers)” value (“inhibition … (RING-RING homo-dimers)” below) at Mdm2 RING domain is given as “do not inhibit”.

`Cc1ccnc(NC(c2cccc(Cl)c2Cl)c2ccc3cccnc3c2O)c1` (stereo not shown) [MMRi64]: the IC50 in the data set with NALM6 was 145 nM; with RL4RH cells it was 1 µM; in the data set on Raji4RH cells it was 0.18 µM; with mouse bone marrow cells, 1.6 µM. In addition, the sub-G1 population with NALM6 cells (0.2 μM, single treatment, combination experiment) is given as 0.73%; in the data set with NALM6 cells (0.4 μM, single treatment, combination experiment), 2.5%; in the data set on NALM6 cells (0.5 μM, 48 h), 7.3%; with NALM6 cells (1 μM, 48 h), 20%. Further, the “effect of shRNA knockdown of p53 on apoptosis induction” value with NALM6-shp53 cells is “did not affect apoptosis induction”.

For `Oc1c(C(Nc2ccccn2)c2cccc(Cl)c2Cl)ccc2cccnc12` (stereo not shown) [MMRi62], at Mdm2-MdmX E3 ligase, the “inhibition … by MdmX” value was “inhibit”. The “inhibition … (RING-RING homo-dimers)” value at Mdm2 RING domain was “do not inhibit”.

Turning to `Oc1c(C(Nc2ccccn2)c2ccccc2Br)cc(Cl)c2cccnc12` (stereo not shown) [MMRi65], the “inhibition … by MdmX” value against Mdm2-MdmX E3 ligase is “inhibit”. Further, the “inhibition … (RING-RING homo-dimers)” value at Mdm2 RING domain was “do not inhibit”.

Take `COc1cc([C@@H]2c3cc4c(cc3[C@@H](O[C@@H]3O[C@@H]5CO[C@@H](C)O[C@H]5[C@H](O)[C@H]3O)[C@H]3COC(=O)[C@H]23)OCO4)cc(OC)c1O` [Etoposide, etoposide]: the IC50 in the data set with NALM6 (listed as marked (nM)) was 2.23 nM; in the data set on NALM6-shp53 (72 h, listed as marked (nM), read-out: IC50 of Compounds, NALM6-shp53), 19.9 nM; in the data set on RL4RH cells, 6.3 µM; in the data set with Raji4RH cells, 1.7 µM; in the data set with mouse bone marrow cells, 0.32 µM. The same compound came in with a Fold change with NALM6-shp53 (IC50 NALM6-shp53 versus NALM6, 72 h) of 9x. Also, the “TW BM/CC, RL4RH” value in the data set with RL4RH cells (therapeutic window, CFU-GM IC50 versus RL4RH IC50) was −19x. In addition, the “TW BM/CC, Raji4RH” value in the data set with Raji4RH cells (therapeutic window, CFU-GM IC50 versus Raji4RH IC50) is −5x. The “fold more toxic to normal mouse bone marrow cells” value in the data set on mouse bone marrow cells is 5 fold. Also, the “fold more toxic to normal mouse bone marrow cells relative to RRCLs” value in the data set with mouse bone marrow cells is on record as 5-20 fold.

On to `Oc1c(C(Nc2ccccn2)c2cccc(Br)c2)cc(Cl)c2cccnc12` (stereo not shown) [MMRi63], for which the “inhibition … by MdmX” value on Mdm2-MdmX E3 ligase is “inhibit”. Moreover, the “inhibition … (RING-RING homo-dimers)” value on Mdm2 RING domain is given as “do not inhibit”.

In the case of `COc1ccc(C2=N[C@@H](c3ccc(Cl)cc3)[C@@H](c3ccc(Cl)cc3)N2C(=O)N2CCNC(=O)C2)c(OC(C)C)c1` [Nutlin3a, reference compound], the IC50 in the data set with NALM6 was found to be 1270 nM. In addition, the sub-G1 population in the data set on NALM6 cells (0.5 μM, 48 h) is recorded as 0.4%; in the data set with NALM6 cells (1 μM, 48 h), 0.8%; with NALM6 cells (2 μM, 48 h) it was 3.0%; in the data set with NALM6 cells (2 μM, single treatment, combination experiment) it was 1.3%. Moreover, in [1], the “effect on MdmX level in HCT8 cells” value is reported as “not obvious”. Besides, the “PUMA induction in NALM6 cells” value in [2] (1 μM, time course) is “stronger p53 accumulation and PUMA induction than MMRi64”. In data set [2] (1 μM, time course to 24 h), the “p21 induction in NALM6 cells” value is given as “strong induction of growth-arresting effector p21”. Also, in data set [2] (Western blot), the “effect on Mdm2 expression in NALM6 cells” value is listed as “strong induction of Mdm2 protein”. Further, the “effect on MdmX levels in NALM6 cells” value in [2] (Western blot) was “slightly decreased MdmX levels”.
